Laboratory results taken from ChEMBL document CHEMBL1136110, “2,3,4,5-tetrahydro- and 2,3,4,5,11,11a-hexahydro-1H-[1,4]diazepino[1,7-a]indoles: new templates for 5-HT(2C) agonists” (Bioorg Med Chem Lett, 2003).
pKi: −log10 of the molar value.

What was measured:
[1] = target: T1, 5-hydroxytryptamine receptor 2C (Homo sapiens, UniProt P28335); experiment: Binding affinity against 5-hydroxytryptamine 2C receptor using [125I]DOI radioligand.
T1 sequence (P28335 whole entry): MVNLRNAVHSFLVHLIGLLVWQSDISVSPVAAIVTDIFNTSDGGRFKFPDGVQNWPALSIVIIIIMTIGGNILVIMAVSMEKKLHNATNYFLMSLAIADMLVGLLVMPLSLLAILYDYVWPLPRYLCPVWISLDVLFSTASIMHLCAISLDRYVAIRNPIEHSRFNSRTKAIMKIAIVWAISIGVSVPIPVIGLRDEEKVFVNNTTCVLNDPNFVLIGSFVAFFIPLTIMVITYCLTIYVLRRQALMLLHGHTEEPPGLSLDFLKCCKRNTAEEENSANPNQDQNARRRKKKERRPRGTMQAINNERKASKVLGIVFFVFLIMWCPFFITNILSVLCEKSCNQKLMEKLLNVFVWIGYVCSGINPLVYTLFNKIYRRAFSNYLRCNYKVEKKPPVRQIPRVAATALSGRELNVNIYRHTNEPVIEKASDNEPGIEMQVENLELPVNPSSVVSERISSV

[2] = target: 5-hydroxytryptamine receptor 2A (Homo sapiens, UniProt P28223); experiment: Binding affinity against 5-hydroxytryptamine 2A receptor using [125I]DOI radioligand.
5-hydroxytryptamine receptor 2A, sequence (P28223 whole entry): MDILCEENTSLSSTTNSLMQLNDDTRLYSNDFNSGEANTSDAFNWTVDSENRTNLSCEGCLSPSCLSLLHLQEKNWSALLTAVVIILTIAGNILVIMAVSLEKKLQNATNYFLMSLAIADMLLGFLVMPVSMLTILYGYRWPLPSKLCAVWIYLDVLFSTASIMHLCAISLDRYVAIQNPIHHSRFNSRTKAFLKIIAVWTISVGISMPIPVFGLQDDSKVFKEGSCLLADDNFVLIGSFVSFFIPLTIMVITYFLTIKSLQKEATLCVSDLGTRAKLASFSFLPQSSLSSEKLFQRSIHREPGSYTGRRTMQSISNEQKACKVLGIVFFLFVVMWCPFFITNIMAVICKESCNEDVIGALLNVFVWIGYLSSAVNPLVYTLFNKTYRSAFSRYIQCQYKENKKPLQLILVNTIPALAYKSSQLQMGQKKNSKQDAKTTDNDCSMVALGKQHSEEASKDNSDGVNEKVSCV

[3] = target: Serotonin 2 receptors; 5-HT2a & 5-HT2c (Homo sapiens) (UniProt P28223+P28335); experiment: Selectivity ratio of binding affinity of 5-hydroxytryptamine 2A receptor to that of 5-hydroxytryptamine 2C receptor.; assay type: protein assay
Serotonin 2 receptors; 5-HT2a & 5-HT2c (Homo sapiens), sequence (P28223 whole entry, looked up, one chain of several): as the sequence (P28223 whole entry) above

[4] = tested on: Mus musculus; experiment: Ataxia (time on rotaing rod) in mice after administration (0.3 mg/kg) using standard Rotarod assay; assay type: functional
[5] = tested on: Mus musculus; experiment: Anxiolytic activity (latency to fight) in mice after administration (0.3 mg/kg) using shock-induced aggression assay; assay type: functional
[6] = tested on: Mus musculus; experiment: Ataxia (time on rotaing rod) in mice after administration (3 mg/kg) using standard Rotarod assay; assay type: functional
[7] = tested on: Mus musculus; experiment: Anxiolytic activity (latency to fight) in mice after administration (3.0 mg/kg) using shock-induced aggression assay; assay type: functional
[8] = target: T2, 5-hydroxytryptamine receptor 2C (Homo sapiens) (UniProt P28335); experiment: Intrinsic efficacy against 5-hydroxytryptamine 2C receptor
T2 sequence (whole entry): T1 sequence (P28335 whole entry)

[9] = tested on: Mus musculus; experiment: Ataxia (time on rotaing rod) in mice after administration (30 mg/kg) using standard Rotarod assay; assay type: functional
[10] = tested on: Mus musculus; experiment: Anxiolytic activity (latency to fight) in mice after administration (3 mg/kg) using shock-induced aggression assay; assay type: functional
[11] = tested on: Mus musculus; experiment: Anxiolytic activity (latency to fight) in mice after administration (30 mg/kg) using shock-induced aggression assay; assay type: functional
[12] = target: T1, 5-hydroxytryptamine receptor 2C; experiment: Binding affinity of compound towards 5-hydroxytryptamine 2C receptor

SMILES	pKi [1]	pKi [2]	Selectivity ratio [3]	further results
CCOc1ccccc1-c1ccc2c(c1)N1CCNCCC1C2 (configuration not stated)	6.03	5.80		
FC(F)(F)c1ccccc1-c1cccc2c1N1CCNCCC1C2 (single isomer, unassigned; (-)) [listing 1 of 2 here]	7.85	7.35		
Clc1c2n(c3ccccc13)CCNCC2	8.33	8.19	1.4	
CCOc1ccccc1-c1cc(Cl)cc2c1N1CCNCCC1C2 (single isomer, unassigned; (+)) [listing 1 of 2 here]	7.49	6.94		
Cc1nnc2n1-c1ccc(Cl)cc1C(c1ccccc1)=NC2 [ALPRAZOLAM]				Latency [4]: 74.2 s; Latency [5]: 11.9 s; Latency [6]: 14.5 s; Latency [7]: 35.2 s
Cc1ccccc1-c1cccc2c1N1CCNCCC1C2 (stereo in doubt; (-)) [listing 1 of 2 here]	7.41	6.87		
Cc1ccccc1-c1cccc2c1N1CCNCCC1C2 (stereo in doubt; (-)) [listing 2 of 2 here]			3.45	
CCOc1ccccc1-c1cccc2c1N1CCNCCC1C2 (single isomer, unassigned; (-)) [listing 1 of 2 here]	6.71	6.01		
CCOc1ccccc1-c1cc(Cl)cc2c1N1CCNCCC1C2 (stereo in doubt) [listing 1 of 2 here]	6.75	6.45		
Cc1c2n(c3ccccc13)CCNCC2	8.17	7.92	1.8	
CCOc1cccc(-c2cc(Cl)cc3c2N2CCNCCC2C3)c1 (configuration not stated)	6.33	6.63	0.49	
FC(F)(F)c1ccccc1-c1cccc2c1N1CCNCCC1C2 (single isomer, unassigned; (+)) [listing 1 of 2 here]	7.23	6.97		
FC(F)(F)c1ccccc1-c1cccc2c1N1CCNCCC1C2 (single isomer, unassigned; (-)) [listing 2 of 2 here]			3.21	
c1ccc2c(c1)cc1n2CCNCC1	8.32	7.74	3.8	Intrinsic efficacy [8]: 80%; Latency [9]: 87.6 s; Latency [10]: 12.8 s; Latency [6]: 102 s; Latency [11]: 27 s
NC(=O)c1c2n(c3ccccc13)CCNCC2	7.13	7.34	0.6	
O=C(c1c2n(c3ccccc13)CCNCC2)C(F)(F)F	7.27	7.40	0.7	
CCOc1ccc(-c2cc(Cl)cc3c2N2CCNCCC2C3)cc1 (configuration not stated)	6.58	6.74	0.69	
CCOc1ccccc1-c1cc(Cl)cc2c1N1CCNCCC1C2 (stereo in doubt) [listing 2 of 2 here]			1.99	
CCOc1ccccc1-c1cc(Cl)cc2cc3n(c12)CCNCC3	6.95	7.49		
Fc1ccc(-c2cc(Cl)cc3c2N2CCNCCC2C3)cc1 (configuration not stated)	6.51	6.84	0.47	
C[C@H](N)Cn1ccc2ccc(F)cc21				pKi [12]: 8.40
Clc1ccc(-c2cc(Cl)cc3c2N2CCNCCC2C3)c(Cl)c1 (configuration not stated)	6.41	6.37	1.1	
Cc1ccccc1-c1cc(Cl)cc2c1N1CCNCCC1C2 (configuration not stated)	7.37	7.06	2.05	
CN1CCc2cc3ccccc3n2CC1	7.89	7.55		Intrinsic efficacy [8]: 49%

SMILES	pKi [1]	pKi [2]	Selectivity ratio [3]	further results
CCOc1ccccc1-c1cccc2c1N1CCNCCC1C2 (stereo in doubt; 20a)	6.96	6.36		
Clc1cc2c(c(-c3ccccc3Cl)c1)N1CCNCCC1C2 (configuration not stated)	7.24	6.99	1.79	
NC(=O)C(=O)c1c2n(c3ccccc13)CCNCC2	6.87	6.50	2.3	
CCOc1ccccc1-c1ccc2c(c1)CC1CCNCCN21 (configuration not stated)	5.32	< 5.00		
O=Cc1c2n(c3ccccc13)CCNCC2	7.92	7.54	2.4	
c1ccc2c(c1)CC1CCNCCN21 (configuration not stated)	6.14	6.09		
CCOc1ccccc1-c1cc(Cl)cc2c1N1CCNCCC1C2 (single isomer, unassigned; (+)) [listing 2 of 2 here]			3.63	
CCN1CCc2cc3ccccc3n2CC1	7.42	7.52		Intrinsic efficacy [8]: 66%
CCOc1ccccc1-c1cccc2c1N1CCNCCC1C2 (single isomer, unassigned; (-)) [listing 2 of 2 here]			5	
c1cc2c3c(c1)c1c(n3CCO2)CCNCC1	8.37	8.39		Intrinsic efficacy [8]: 105%
CCOc1ccccc1-c1cccc2c1N1CCNCCC1C2 (single isomer, unassigned; (+)) [listing 1 of 2 here]			4.45	
Clc1ccc(Cl)c(-c2cc(Cl)cc3c2N2CCNCCC2C3)c1 (configuration not stated)	6.80	7.15	0.44	
N#Cc1c2n(c3ccccc13)CCNCC2	7.07	7.08	1	
c1ccc2c3c([nH]c2c1)CCNCC3	8.21	8.00		Intrinsic efficacy [8]: 66%
Cn1c2c(c3ccccc31)CCNCC2 [PNU-22394]	7.72	7.72		Intrinsic efficacy [8]: 83%
CCCN1CCc2cc3ccccc3n2CC1	7.19	7.25		
Cc1ccccc1-c1cccc2c1N1CCNCCC1C2 (stereo in doubt; (+)) [listing 1 of 2 here]	7.52	6.72		
Cc1ccccc1-c1cccc2c1N1CCNCCC1C2 (stereo in doubt; (+)) [listing 2 of 2 here]			6.37	
COc1ccc(Cl)cc1-c1cc(Cl)cc2c1N1CCNCCC1C2 (configuration not stated)	6.10	6.12	0.95	
Fc1ccccc1-c1cc(Cl)cc2c1N1CCNCCC1C2 (configuration not stated)	6.65	6.85	0.63	
FC(F)(F)c1ccccc1-c1cccc2c1N1CCNCCC1C2 (single isomer, unassigned; (+)) [listing 2 of 2 here]			1.81	
CCOc1ccccc1-c1cccc2c1N1CCNCCC1C2 (single isomer, unassigned; (+)) [listing 2 of 2 here]	6.99	6.34		
CCOc1ccccc1-c1cc(Cl)cc2c1N1CCNCCC1C2 (stereo in doubt; 22a)	7.27	6.66		
Clc1ccccc1-c1cccc2c1N1CCNCCC1C2 (configuration not stated)	7.64	7.09	3.57	
